Assay results as given in patent US20260234159A1, “SMALL MOLECULE TREATMENT OF FATTY LIVER DISEASE AND HCC” (SCANDIEDGE THERAPEUTICS AB, priority 2023, published 2026).
Read-outs that look alike come from different tables or passages of the source.

Experiments:
[1] = MTT cell viability after one week steatosis (ranking of target molecules); format: cell-based, human; conditions: human, HepG2 cells (wild type); HepG2, 10 μM, one week steatosis induce media, MTT; Control 100.00
In short: (§1)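 HepG2 cells, 60,000 per well, kept one week in steatosis medium (high-glucose DMEM, 10 μg/ml insulin, 10 μM T0901317) with 10 μM compound. Medium changed at day 0, 3 and 5. Viability measured by MTT.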

HepG2 cells [2] = assay: as above; format: cell-based, human
In short: as §1

HepG2 cells [3] = assay: Invasion assay (transwell); format: cell-based, human; conditions: for inhibition at 1 µM: Homo sapiens, HepG2, 24 hr, read-out: invasiveness reduced by
Protocol: The effects of the treatment with the compounds on the invasion ability of HepG2 and Huh7 cells were determined by 8 μm pores transwell chamber (Corning™ 3464, USA).
(§2) Transwell membrane was coated with 100 μl collagen (Sigma C3867, USA) diluted with PBS to a concentration of 1 mg/ml. After overnight incubation at 4° C., the collagen solution was discarded and the membrane was washed with PBS. 100,000 cells in 200 μl serum free media together with the tested compounds were added into the upper well and 600 μl of 10% FBS supplemented growth media was added to the lower well as an invasive attractant in a 24-well plate. Cells were incubated at 37° C. in a CO2 incubator for one day. The cells were fixed with 3.7% formaldehyde for 30 minutes at room temperature and washed with PBS twice. The cells were stained with 1% crystal violet in PBS for 20 minutes and residual cells in inner membrane were swabbed gently with a cotton swab. Invaded cells located at the outer membrane were imaged by ZOE Fluorescent Cell Imager (Bio-Rad, USA) and counted by image. For wound healing assay, 100,000 cells per well were seeded into 24-well plates and grown until 95-100% confluent. Linear wound was created by using a 200 μl pipette tip. Image was recorded at the time point of day 0 until control group wound closure with 1 μM of compounds by ZOE Fluorescent Cell Imager (Bio-Rad, USA). Wound areas were measured using ImageJ software.

HepG2 cells [4] = assay: Triglyceride (TAG) measurement assay, one week steatosis model; format: cell-based, human; conditions: Homo sapiens
In short: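 HepG2 cells steatosis-induced for one week in high-glucose DMEM/10% FBS with 10 μg/ml insulin and 10 μM T0901317, media changed at days 0, 3 and 5, with 10 μM test compound throughout. Triglyceride measured colorimetrically (OD 570 nm); viability by MTT.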

HepG2 cells [5] = assay: Mitochondrial membrane potential assay (TMRE); format: cell-based, human; conditions: 10 μM, one day
Protocol: (§3) HepG2 cells were seeded into a 6-well plate at 400,000 cells per well. After treatment with the compounds at desired concentration and time, TMRE (ab113852, abcam), Autophagy (ab139484, abcam), ROS (ab113851, abcam), and Lipid peroxidation (ab243377, abcam) assay were performed according to manufacturer's instructions. Fluorescence images were taken using ZOE™ Fluorescent Cell Imager (Biorad) and ROI of fluorescence intensity was measured and calculated by Image J. For microplate reader florescence assay, 40,000 of HepG2 cells were seeded into a 96-well plate and triplicated. GFP (Ex480 nm, Em530 nm) and RFP (Ex549 nm, Em574 nm) were measured using a microplate reader (Hidex Sense Meta Plus).

HepG2 cells [6] = assay: FACs analysis with PI staining (cell cycle); format: cell-based, human; conditions: for Cell population G0/G1 / Cell population G2/M / Cell population S: PI FACs, 10 μM, 2 days; for cell cycle distribution / arrest: PI FACS
Protocol: 400,000 HepG2 cells were seeded in a 6-well plated and treated with 10 μM of the compounds for 2 days. Cells were fixed with 70% ethanol and stained with 50 μg/ml PI. Prepared cells were analysed using BD FACS Canto II Flow Cytometry system at PE-A channel 10,000 cells per group. The data was histogram plotted with BD FACSDiva 9.0.

[7] = MTT cell viability / IC50 in growth media; format: cell-based, human; conditions: human, HepG2 cells, 10 μM; for viability at 2 days, 10 µM: treatment for 2 days; for viability at 4 day, 10 µM: day 4
Protocol: (§4) The cytotoxic effects of the synthesized drugs on the HepG2 cells were tested by MTT (Thiazolyl Blue Tetrazolium Bromide) method. HepG2 cells were seeded 2×10^4 cells per well in 96-well plate in 200 μL growth media. […] After the incubation period, 5 mg/ml MTT (M2128, Sigma-Aldrich) solution in PBS (10 μL) was added to each well. After 1 hr, the MTT solution and all media were removed from the wells. 100 μl of DMSO was added and mixed to dissolve the formazan crystals. Cell viability was analysed by measuring the absorbance of the dissolved formazan in a microplate reader at a wavelength of 570 nm with microplate reader (Hidex Sense Beta Plus).
(§5) HepG2 cells were maintained and used with RPMI 1640 (R2405, Sigma-Aldrich) supplemented with 10% fetal bovine serum (F7524, Sigma-Aldrich), 1% P/S (P4333, Sigma-Aldrich). 20,000 cells per well of HepG2 cells were seeded into a 96-well plate and triplicated for MTT assay and LDH assay. Cell viability was measured by MTT assay (M6494, ThermoFisher) and cytotoxicity was measured by LDH assay kit (ab65393, abcam) by following manufacturer's instructions. Optical density (O.D) was numerated using a microplate reader (Hidex Sense Meta Plus).

HepG2 cells [8] = assay: MTT cell viability / IC50 in growth media; format: cell-based, human; conditions: 30 μM to 30 nM; for IC50: Homo sapiens, 48 h, HepG2, treatment for 2 days
Protocol: as §4, §5

JNK1/2/3 = assay: Western blot, JNK1/2/3 P54 and p46 isoforms; format: cell-based, human; conditions: 10 μM, 2 days
Protocol: HepG2 cells were seeded into a 6-well plate at 400,000 cells per well. After treatment with 10 μM of JNK-IN-5A and its derivatives for two days, lysates were harvested with CelLytic M (C2978, Sigma-Aldrich). […] SDS PAGE were performed using Mini-PROTEAN® TGX™ Precast Gels (Bio-Rad) and transferred using Trans-Blot® Turbo™ Transfer System (Bio-Rad). […] ImageQuantTMLAS 500 (29-0050-63, GE) was used to detect protein bands.

HepG2 cells [9] = assay: Wound healing assay; format: cell-based; conditions: Homo sapiens, HepG2, 96 h, day 4, untreated 100% wound closure, read-out: wound healing delayed by
Protocol: as §2

Caspase 3 = assay: Western blot, active caspase 3; format: cell-based, human; conditions: 10 μM, 2 days
Protocol: (§6) HepG2 cells were seeded into a 6-well plate at 400,000 cells per well. After treatment with 10 μM of JNK-IN-5A and its derivatives for two days, lysates were harvested with CelLytic M (C2978, Sigma-Aldrich). 20 μg lysate was prepared with 2× Laemmli Sample Buffer (1610737, Biorad). SDS PAGE were performed using Mini-PROTEAN® TGX™ Precast Gels (Bio-Rad) and transferred using Trans-Blot® Turbo™ Transfer System (Bio-Rad). Primary antibody, PARP (95425, Cell signalling), Caspase 3 (ab32042, abcam), Bcl-2 (ab182858), STAT1 (HPA000982, Merk), PKL (06653, Sigma), PKM (4053S, Cell signalling), GAPDH (ab8245, abcam), P53 (ab32389, abcam), p21 (ab109199, abcam), p-S349 p62 (ab211324, abcam), p62 (ab109012, abcam), c-Myc (ab32072, abcam), GPX4 (ab125066, abcam), MMP9 (MA5-32705, Invitrogen), β-actin (ab8227, abcam), and α-tubulin (ab7291, abcam) were blotted overnight and Goat Anti-Rabbit HRP (ab205718) and goat anti-mouse IgG-HRP (sc2005, Santa Cruz Biotechnology, Inc.) were blotted for secondary antibody for one hour. ImageQuantTMLAS 500 (29-0050-63, GE) was used to detect protein bands.

HepG2 cells [10] = assay: Autophagy assay; format: cell-based, human; conditions: 10 μM, one day
Protocol: as §3

GPX4 = assay: Western blot, GPX4; format: cell-based, human; conditions: compared to the control
Protocol: as §6

PARP = assay: Western blot, cleaved PARP; format: cell-based, human; conditions: 10 μM, 2 days
Protocol: as §6

c-Myc = assay: Nuclear protein western blot, c-Myc; format: cell-based, human; conditions: 10 μM, 2 days
Protocol: as §6

p21 = assay: Nuclear protein western blot, p21; format: cell-based, human; conditions: 10 μM, 2 days
Protocol: as §6

[11] = 168 h, HepG2, 10 μM, one week steatosis induce media, Control 100.00, read-out: TAG (%)

In the case of `N#Cc1c(NC(=O)c2cccc3ccccc23)sc2c1CCN(C(=O)Nc1ccccc1Cl)C2` [PKL-A156], the viability at 1 week, 10 µM [1] is reported as 26.6%, the “cell viability of HepG2” value (HepG2 cells [2]) is reported as “exceptionally low cell viability” and the inhibition at 1 µM (HepG2 cells [3]) is reported as 14%. For the same compound, the activity at 10 µM (HepG2 cells [4]; [11]) was 13.5%, the activity at 10 µM (HepG2 cells [4]; HepG2, 168 h, ratio between TAG content and cell viability, Control 100.0, read-out: TAG/cell viability) was 50.8% and the mitochondrial membrane potential (HepG2 cells [5]) was “significantly decreased”. For the same compound, the “Cell population G0/G1” value (HepG2 cells [6]) was 30.1, the “Cell population G2/M” value (HepG2 cells [6]) was 60.8 and the “Cell population S” value (HepG2 cells [6]) was 2.3. For the same compound, the viability at 2 days, 10 µM [7] was 53.7%, the IC50 (HepG2 cells [8]) was 15.9 µM and the “JNK1/2/3 p46 expression” value (JNK1/2/3) was “not significantly altered”. The inhibition at 1 µM (HepG2 cells [9]) was 26.2%.
With `N#Cc1c(NC(=O)c2cccc3ccccc23)sc2c1CCN(C(=O)Nc1ccccc1C(F)(F)F)C2` [PKL-A158] the viability at 1 week, 10 µM [1] was 9.59%, the “cell viability of HepG2” value (HepG2 cells [2]) was “exceptionally low cell viability” and the inhibition at 1 µM (HepG2 cells [3]) was 20.8%. For the same compound, the activity at 10 µM (HepG2 cells [4]; [11]) was 8.35%, the mitochondrial membrane potential (HepG2 cells [5]) was “significantly decreased” and the “Cell population G0/G1” value (HepG2 cells [6]) was 31.6. The “Cell population G2/M” value (HepG2 cells [6]) was 60.3, the “Cell population S” value (HepG2 cells [6]) was 3.5 and the viability at 2 days, 10 µM [7] was 51.9%. The IC50 (HepG2 cells [8]) was 7.6 µM, the “JNK1/2/3 p46 expression” value (JNK1/2/3) was “not significantly altered” and the inhibition at 1 µM (HepG2 cells [9]) was 39.5%.
For `CNC(=O)c1cc(Oc2ccc(NC(=O)Nc3ccc(Cl)c(C(F)(F)F)c3)c(F)c2)ccn1` [Regorafenib, regorafenib, reference compound], the “active caspase 3 levels” value (Caspase 3) was 3.61 times, the “autophagy GFP signals” value (HepG2 cells [10]) was “did not induce autophagy” and the inhibition at 1 µM (HepG2 cells [3]) was 21%. For the same compound, the mitochondrial membrane potential (HepG2 cells [5]) was “decrease”, the GPX4 expression levels (GPX4) was “significantly higher” and the “cell cycle distribution / arrest” value (HepG2 cells [6]) was “did not alter the cell cycle distribution significantly”. The “Cell population G0/G1” value (HepG2 cells [6]) was 70.5, the “Cell population G2/M” value (HepG2 cells [6]) was 14.9 and the “Cell population S” value (HepG2 cells [6]) was 9.7. The “increase in cleaved PARP vs untreated control” value (PARP) was 16 times, the “nuclear c-Myc expression” value (c-Myc) was “decreased” and the viability at 4 day, 10 µM [7] was 13.4%. The viability at 2 days, 10 µM [7] was 41.1%, the “dose dependence of cell viability” value (HepG2 cells [8]) was “dose-dependent decrease in cell viability” and the IC50 (HepG2 cells [8]) was 5.91 µM. For the same compound, the p21 nuclear localization (p21) was “not”, the “JNK1/2/3 p46 expression” value (JNK1/2/3) was 0.65 times and the inhibition at 1 µM (HepG2 cells [9]) was 44.8%.
In the case of `CNC(=O)c1cc(Oc2ccc(NC(=O)Nc3ccc(Cl)c(C(F)(F)F)c3)cc2)ccn1` [Sorafenib, sorafenib, reference compound], the “active caspase 3 levels” value (Caspase 3) is reported as 4.35 times, the “autophagy GFP signals” value (HepG2 cells [10]) is reported as “did not induce autophagy” and the “invasiveness reduced by” value (HepG2 cells [3]; 1 μM, 24 hr) is reported as 28.7%±2.9. The mitochondrial membrane potential (HepG2 cells [5]) was “decrease”, the GPX4 expression levels (GPX4) was “significantly higher” and the “cell cycle distribution / arrest” value (HepG2 cells [6]) was “did not alter the cell cycle distribution significantly”. The “Cell population S” value (HepG2 cells [6]) was 10.1, the “increase in cleaved PARP vs untreated control” value (PARP) was 10 times and the “nuclear c-Myc expression” value (c-Myc) was “decreased”. The viability at 4 day, 10 µM [7] was 19.2%, the viability at 2 days, 10 µM [7] was 51% and the “dose dependence of cell viability” value (HepG2 cells [8]) was “dose-dependent decrease in cell viability”. For the same compound, the IC50 (HepG2 cells [8]) was 8.64 µM, the p21 nuclear localization (p21) was “not” and the “JNK1/2/3 p46 expression” value (JNK1/2/3) was 0.81 times. The inhibition at 1 µM (HepG2 cells [9]) was 35%.
